Patent US20100037351A1, “Alteration of Phospholipase De (PLDe) or Phospholipase Da3 (PLD a3) Expression in Plants” (DONALD DANFORTH PLANT SCIENCE CENTER, priority 2008, published 2010)

Legend:
S6K = S6K binding to lipids immobilized on a nitrocellulose filter; parameters: species or system Arabidopsis; settings: 10 mg lipid spotted; leaf proteins 1.2 mg/ml; anti-human p70 S6K antibody
Experimental: FIG. 5 depicts S6K levels under different N levels. (A) and (B) S6K protein levels detected by immunoblotting with anti-p70 S6K and anti-phospho-p70 S6K (Thr389) antibodies, respectively. Four-day-old seedlings were transferred to MS plates with the indicated N levels for 10 days. The same amount of proteins ([…]/lane) was separated by 10% SDS-PAGE and transferred to a nitrocellulose membrane. (C) S6K binding to PA immobilized on filter. Lipid (10 mg) was spotted on nitrocellulose filter, and incubated with leaf proteins (1.2 mg/ml), followed by blotting with anti-human p70 S6K antibody. (D) S6K binding to liposomes composed of PA (PA:PC=1:2), PC, or PI only (650 nmol of total lipids). (E) Total S6K, but not phosphorylated S6K binding to PA:PC liposomes. Proteins were extracted from WT and PLDε-altered seedlings. Bound proteins were separated by SDS-PAGE and detected by blotting with anti-human p70 S6K antibody or anti-human p389 p70 S6K antibody.
PLDε: PA-Protein Binding by Blotting and Liposomal Assays. S6K binding to lipids immobilized on a nitrocellulose filter was performed as described (Zhang, W., Qin, C., Zhao, J. & Wang, X. (2004) Proc. Natl. Acad. Sci. USA. 101, 9508-9513; Stevenson, J. M., Perera, I. Y. & Boss, W. F. (1998) J Biol Chem. 273, 22761-22767) with minor modifications. […] Protein binding to liposome was detected by immunoblotting as described above.

Arabidopsis seedlings = settings: for effect on number and length of lateral roots: MS with 6 mM N containing 0.15% butanol, OE, WT and KO seedlings, measured 6 days after transfer
Experimental: (A) Four-day-old seedlings were transferred to Murashige and Skoog (MS) containing 6 mM N for 12 days. […] Root length and number were measured 6 days after transfer. Values are means±SD (n=30).
To test N response on plates, surface-sterilized seeds were germinated in MS (1×) agar plates supplement with 3% sucrose for 4 days and then were transferred to modified MS agar plates containing 0.1, 0.6, 2, 6, 60 mM N, NO3^−:NH4^−=2:1). […] Seedlings were grown on plates in a vertical orientation in a growth chamber under the conditions of 16-h light/8-h dark, 23/21° C., cool fluorescent white light (200 mmol m^−2 s^−1). Alternatively, seeds were also directly germinated in agar plates with the same conditions as described above.

S6K binding to lipid immobilized on filter (S6K)	Compound	effect on biomass accumulation (Arabidopsis seedlings; 1-butanol treatment, data not shown)	effect on number and length of lateral roots (Arabidopsis seedlings)
bound	phosphatidic acid [PA]		
	CCCCO [1-Butanol, 1-butanol]	inhibited	inhibited
	CCC(C)O (stereo not shown) [2-butanol]		no growth inhibitory effect
